Consider two compounds from US12595269B2, “Morpholine-like monoamine releasers” (Solvonis Therapeutics Ireland Holdings Limited, priority 2022, dated 2026).

Where only a bound is given, the exact number is not on record here.

In one data set the target is T1, CYP1A2 (Homo sapiens, UniProt P05177).
T1 construct: host or cells: recombinant microsomes
T1 sequence (P05177 1-516): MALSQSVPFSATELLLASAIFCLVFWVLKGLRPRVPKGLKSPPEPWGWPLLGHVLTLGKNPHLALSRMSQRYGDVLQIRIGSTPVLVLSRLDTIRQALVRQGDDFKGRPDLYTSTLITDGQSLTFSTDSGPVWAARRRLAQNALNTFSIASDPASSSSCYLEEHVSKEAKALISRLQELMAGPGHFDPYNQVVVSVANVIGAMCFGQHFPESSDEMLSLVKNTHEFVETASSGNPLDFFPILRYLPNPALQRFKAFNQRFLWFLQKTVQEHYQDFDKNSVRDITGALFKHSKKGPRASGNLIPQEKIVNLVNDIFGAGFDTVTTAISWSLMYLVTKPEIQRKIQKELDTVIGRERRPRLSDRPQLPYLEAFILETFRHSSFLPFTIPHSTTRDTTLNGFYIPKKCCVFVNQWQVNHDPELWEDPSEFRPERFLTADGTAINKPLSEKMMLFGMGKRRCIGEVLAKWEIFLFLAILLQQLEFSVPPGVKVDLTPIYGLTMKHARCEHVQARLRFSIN
Put plainly: CYP450 inhibition, fluorescent probe, recombinant microsomes: CYP1A2. It counts as in vitro ADME. The method, then: (§1) Methods and Procedure: The study was performed in agreement with previously described procedures to assure data integrity and adherence to GLP standards. Briefly, recombinant human CYP450 isoenzymes were used to metabolize pro-fluorescent probe substrates to fluorescent products. IC50 values determined from the effect of test compounds on the metabolism of these probe substrates were then used to determine inhibitory potency against CYP450 isoforms.
(§2) The test system was based on a three-step procedure with a “mix and read” format, where PGP-432,TI reaction and reading were performed at 37° C. […] Fluorescence was measured in kinetic mode (1 read/minutes for 10 minutes), and the fluorescence rate was calculated. […]
(§3) Microsomes were added to the buffer prior to the substrate addition. […] For fluorescence measurement, 10 μL/well of the test compounds were transferred from the compound plate to the assay plate using Biomek FX and the appropriate protocol. […]
(§4) 10 μL/well of the cofactor was then added to the assay plate using the Multidrop before placing the assay plate in the plate reader EnVision to measure fluorescence. […]
(§5) Next, 10 μL/well from the compound plate was added and incubated for 10 minutes at 37° C. on a plate shaker, while a mixture of Vivid Substrate and Vivid NADP+ in Vivid CYP450 Reaction Buffer was prepared. […] Regarding data analysis, the inhibition effect is expressed as a percentage. […]

The next data set has as its target T2, CYP2C19 (Homo sapiens, UniProt P33261).
T2 construct: host or cells: recombinant microsomes
In words: CYP450 inhibition, fluorescent probe, recombinant microsomes: CYP2C19. It counts as in vitro ADME. As for the experimental part:
as §1, §2, §3, §4, §5

T2 sequence (P33261 whole entry): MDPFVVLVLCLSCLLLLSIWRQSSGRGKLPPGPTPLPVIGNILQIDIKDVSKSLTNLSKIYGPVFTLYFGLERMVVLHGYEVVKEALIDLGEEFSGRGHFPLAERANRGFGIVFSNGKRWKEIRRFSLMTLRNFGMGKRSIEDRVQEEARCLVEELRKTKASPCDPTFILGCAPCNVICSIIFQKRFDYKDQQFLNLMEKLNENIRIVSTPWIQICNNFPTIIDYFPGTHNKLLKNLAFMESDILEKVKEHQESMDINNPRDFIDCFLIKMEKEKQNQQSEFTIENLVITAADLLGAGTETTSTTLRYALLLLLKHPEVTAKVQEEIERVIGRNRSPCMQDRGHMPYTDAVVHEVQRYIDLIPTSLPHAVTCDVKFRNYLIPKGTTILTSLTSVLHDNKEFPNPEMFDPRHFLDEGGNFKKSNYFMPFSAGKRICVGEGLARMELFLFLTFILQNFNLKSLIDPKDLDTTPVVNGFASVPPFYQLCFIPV

For `Clc1ccc(C23CNC(CO2)C3)cc1Cl` (stereo not shown) [522A, 1-(3,4-dichlorophenyl)-2-oxa-5-azabicyclo[2.2.1]heptane], the IC50 on CYP1A2 (recombinant human CYP1A2) and on CYP2C19 (recombinant human CYP2C19) was over 50 µM each time.
Regarding `CNC(C)Cc1ccc2c(c1)OCO2` (stereo not shown) [MDMA, reference compound], the IC50 at 10 min stood at 50 µM on CYP1A2 (human, recombinant microsomes expressing CYP1A2) and 50 µM on CYP2C19 (human, recombinant microsomes expressing CYP2C19).
